Measured values as given in ChEMBL document CHEMBL4622897, “Synthesis and biological evaluation of backbone-aminated analogues of gramicidin S” (Bioorg Med Chem Lett, 2020).
Numbered stars: 1 amine (or outer) side, 2 acyl side, 3 side chain; on linkers, the order of the positions; unused ones are H or OH. Square brackets hold non-standard residues; d marks the D form. Peptide text beside a SMILES is read from it. X1 = NN([C@H](Cc1ccccc1)C(=O)[*:2])[*:1]; Orn(Nα-NH2) = NCCC[C@H](NN)C(=O)O; Orn = NCCC[C@H](N)C(=O)O

Experiments:
Klebsiella pneumoniae = assay: Antibacterial activity against Klebsiella pneumoniae 1433 assessed as growth inhibition by microbroth dilution assay; type: functional
Staphylococcus aureus = assay: Antibacterial activity against Staphylococcus aureus 635 assessed as growth inhibition by microbroth dilution assay; type: functional
Enterococcus faecium = assay: Antibacterial activity against Enterococcus faecium 1450 assessed as growth inhibition by microbroth dilution assay; type: functional
Acinetobacter baumannii = assay: Antibacterial activity against Acinetobacter baumannii 5075 assessed as growth inhibition by microbroth dilution assay; type: functional; conditions: AB5075
Pseudomonas aeruginosa = assay: Antibacterial activity against Pseudomonas aeruginosa 1419 assessed as growth inhibition by microbroth dilution assay; type: functional
Enterobacter cloacae = assay: Antibacterial activity against Enterobacter cloacae 1454 assessed as growth inhibition by microbroth dilution assay; type: functional
Erythrocyte = assay: Hemolytic activity in human RBC assessed as hemolysis at 50 uM; type: ADME, cell-based
[1] = Hemolytic activity in human RBC assessed as hemolysis at 50 uM relative to control; type: ADME, cell-based, Erythrocyte; conditions: red blood cells (erythrocytes), read-out: Activity

| Compound | MIC (Klebsiella pneumoniae) | MIC (Staphylococcus aureus) | MIC (Enterococcus faecium) | MIC (Acinetobacter baumannii) | MIC (Pseudomonas aeruginosa) | MIC (Enterobacter cloacae) | Activity (Erythrocyte) | hemolysis at 50 µM [1] |
| --- | --- | --- | --- | --- | --- | --- | --- | --- |
| CC(C)C[C@@H]1NC(=O)[C@H](CCCN)NC(=O)[C@H](C(C)C)NC(=O)[C@@H]2CCCN2C(=O)[C@@H](Cc2ccccc2)N(N)C(=O)[C@H](CC(C)C)NC(=O)[C@H](CCCN)NC(=O)[C@H](C(C)C)NC(=O)[C@@H]2CCCN2C(=O)[C@@H](Cc2ccccc2)N(N)C1=O (cyclo(L[X1]PV[Orn]L[X1]PV[Orn])) | > 50 µM | 4 µM | 4 µM | 12.5 µM | 35 µM | > 50 µM | Toxic | – |
| CC(C)C[C@@H]1NC(=O)[C@H](CCCN)NC(=O)[C@H](C(C)C)NC(=O)[C@@H]2CCCN2C(=O)[C@@H](Cc2ccccc2)N(N)C(=O)[C@H](CC(C)C)NC(=O)[C@H](CCCN)NC(=O)[C@H](C(C)C)NC(=O)[C@@H]2CCCN2C(=O)[C@@H](Cc2ccccc2)NC1=O (cyclo(L[dF]PV[Orn]L[X1]PV[Orn])) | 45 µM | 4 µM | 5 µM | 6 µM | 20 µM | 40 µM | – | – |
| CC(C)C[C@@H]1NC(=O)[C@H](CCCN)NC(=O)[C@H](C(C)C)NC(=O)[C@@H]2CCCN2C(=O)[C@@H](Cc2ccccc2)NC(=O)[C@H](CC(C)C)NC(=O)[C@H](CCCN)N(N)C(=O)[C@H](C(C)C)NC(=O)[C@@H]2CCCN2C(=O)[C@@H](Cc2ccccc2)NC1=O (cyclo(L[dF]PV[Orn]L[dF]PV[Orn(Nα-NH2)])) | 40 µM | 2 µM | 3 µM | 6.5 µM | 13 µM | 30 µM | – | – |
| CC(C)C[C@@H]1NC(=O)[C@H](CCCN)NC(=O)[C@H](C(C)C)NC(=O)[C@@H]2CCCN2C(=O)[C@@H](Cc2ccccc2)NC(=O)[C@H](CC(C)C)NC(=O)[C@H](CCCN)NC(=O)[C@H](C(C)C)NC(=O)[C@@H]2CCCN2C(=O)[C@@H](Cc2ccccc2)NC1=O (cyclo(L[dF]PV[Orn]L[dF]PV[Orn])) | – | – | – | – | – | – | – | 22% |
| CC(C)C[C@@H]1NC(=O)[C@H](CCCN)NC(=O)[C@H](C(C)C)NC(=O)[C@@H]2CCCN2C(=O)[C@@H](Cc2ccccc2)NC(=O)[C@H](CC(C)C)NC(=O)[C@H](CCCN)NC(=O)[C@H](C(C)C)NC(=O)[C@@H]2CCCN2C(=O)[C@@H](Cc2ccccc2)NC1=O (cyclo(V[Orn]L[dF]PV[Orn]L[dF]P)) | 40 µM | 3 µM | 3 µM | 6.5 µM | 20 µM | 35 µM | – | – |

Further lines, with some results ahead:

| MIC (Klebsiella pneumoniae) | MIC (Staphylococcus aureus) | MIC (Enterococcus faecium) | MIC (Acinetobacter baumannii) | MIC (Pseudomonas aeruginosa) | MIC (Enterobacter cloacae) | Compound | Activity (Erythrocyte) | hemolysis at 50 µM [1] |
| --- | --- | --- | --- | --- | --- | --- | --- | --- |
| > 50 µM | 2 µM | 2 µM | 5 µM | 15 µM | > 50 µM | CC(C)C[C@@H]1NC(=O)[C@H](CCCN)N(N)C(=O)[C@H](C(C)C)NC(=O)[C@@H]2CCCN2C(=O)[C@@H](Cc2ccccc2)N(N)C(=O)[C@H](CC(C)C)NC(=O)[C@H](CCCN)N(N)C(=O)[C@H](C(C)C)NC(=O)[C@@H]2CCCN2C(=O)[C@@H](Cc2ccccc2)N(N)C1=O (cyclo(L[X1]PV[Orn(Nα-NH2)]L[X1]PV[Orn(Nα-NH2)])) | Toxic | – |
| 50 µM | 3 µM | 3 µM | 6.5 µM | 20 µM | 35 µM | CC(C)C[C@@H]1NC(=O)[C@H](CCCN)NC(=O)[C@H](C(C)C)NC(=O)[C@@H]2CCCN2C(=O)[C@@H](Cc2ccccc2)N(N)C(=O)[C@H](CC(C)C)NC(=O)[C@H](CCCN)N(N)C(=O)[C@H](C(C)C)NC(=O)[C@@H]2CCCN2C(=O)[C@@H](Cc2ccccc2)N(N)C1=O (cyclo(L[X1]PV[Orn]L[X1]PV[Orn(Nα-NH2)])) | – | – |
| > 50 µM | 2 µM | 2 µM | 6 µM | 12 µM | > 50 µM | CC(C)C[C@@H]1NC(=O)[C@H](CCCN)N(N)C(=O)[C@H](C(C)C)NC(=O)[C@@H]2CCCN2C(=O)[C@@H](Cc2ccccc2)N(N)C(=O)[C@H](CC(C)C)NC(=O)[C@H](CCCN)N(N)C(=O)[C@H](C(C)C)NC(=O)[C@@H]2CCCN2C(=O)[C@@H](Cc2ccccc2)NC1=O (cyclo(L[dF]PV[Orn(Nα-NH2)]L[X1]PV[Orn(Nα-NH2)])) | – | – |
| 45 µM | 2 µM | 3 µM | 6.5 µM | 15 µM | 15 µM | CC(C)C[C@@H]1NC(=O)[C@H](CCCN)NC(=O)[C@H](C(C)C)NC(=O)[C@@H]2CCCN2C(=O)[C@@H](Cc2ccccc2)N(N)C(=O)[C@H](CC(C)C)NC(=O)[C@H](CCCN)N(N)C(=O)[C@H](C(C)C)NC(=O)[C@@H]2CCCN2C(=O)[C@@H](Cc2ccccc2)NC1=O (cyclo(L[dF]PV[Orn(Nα-NH2)]L[X1]PV[Orn])) | – | – |
| 45 µM | 2 µM | 2 µM | 4 µM | 10 µM | 20 µM | CC(C)C[C@@H]1NC(=O)[C@H](CCCN)N(N)C(=O)[C@H](C(C)C)NC(=O)[C@@H]2CCCN2C(=O)[C@@H](Cc2ccccc2)NC(=O)[C@H](CC(C)C)NC(=O)[C@H](CCCN)N(N)C(=O)[C@H](C(C)C)NC(=O)[C@@H]2CCCN2C(=O)[C@@H](Cc2ccccc2)NC1=O (cyclo(L[dF]PV[Orn(Nα-NH2)]L[dF]PV[Orn(Nα-NH2)])) | – | 16% |
| 45 µM | 2 µM | 3 µM | 6.5 µM | 15 µM | 30 µM | CC(C)C[C@@H]1NC(=O)[C@H](CCCN)N(N)C(=O)[C@H](C(C)C)NC(=O)[C@@H]2CCCN2C(=O)[C@@H](Cc2ccccc2)N(N)C(=O)[C@H](CC(C)C)NC(=O)[C@H](CCCN)NC(=O)[C@H](C(C)C)NC(=O)[C@@H]2CCCN2C(=O)[C@@H](Cc2ccccc2)NC1=O (cyclo(L[dF]PV[Orn]L[X1]PV[Orn(Nα-NH2)])) | – | – |
